Test results as given in patent publication US4233445A, “7-(Substituted)-7H-pyrrolo[3.2-F]-quinazoline-1,3-diamines” (American Home Products Corporation, priority 1979, dated 1980).
≈ marks a conversion by molar mass, not a printed value.

Assays:
[1] = tested on: S. aureus Smith; assay: In vitro antibacterial activity (MIC), S. aureus Smith; format: cell-based; conditions: agar dilution, 18 hours at 35° C.
Procedure: (§1) The compounds have shown activity in vitro against one or more of the following strains of bacteria: S. aureus Smith, S. aureus 53-180, N. catarrhalis 8193, E. coli 9637, S. paratyphi 11737, K. pneumoniae 10031, or P. vulgaris 6896.
(§2) A stock solution or suspension of the test compound at a concentration of 2500 μg/ml. is prepared utilizing a suitable solvent or medium such as aqueous sodium hydroxide, aqueous lactic acid, methyl cellosolve, dimethylsulfoxide, dimethylacetamide, ethylene glycol, dimethylformamide, formamide, propylene glycol, acetone or methanol. Two-fold dilutions are made by adding appropriate amounts of sterile water to the solution or suspension of the test substance. One ml. quantities of each dilution are incorporated into Wellcotest Sensitivity Test Agar fortified with 5% hemolyzed horse blood (9 ml. vol.) in sterile Petri dishes to give plates containing varying concentrations of the test compound. The hardened surfaces of each plate are incubated with the test organism, and the plates are incubated for 18 hours at 35° C.

[2] = tested on: Staphylococcus aureus CHP; assay: In vivo antibacterial synergism (mouse), Staphylococcus aureus CHP; set-up: species or system Mice (male, CD-1 strain); conditions: p.o., at time of infection, Cpd. dose in combination with SM, 20160 min
Procedure: (§3) The test agent is weighed, suspended in 0.5% aqueous carboxymethyl cellulose, hemogenized (glass tissue grinder) and diluted according to the design of the experiment. Mice (male, 18±1 g., CD-1 strain) are pre-weighed, pooled, infected at random intraperitoneally with a 0.5 ml. standardized suspension (LD95 ±5%) of the bacterial organism in 5% gastric mucin and treated at random with single doses of the test agents either at the time of infection or six hours after infecting. The treated groups consist of ten mice per dosage level. Deaths are recorded daily for 14 days and the PD50 (mice are treated at time of infection) and CD50 (mice are treated six hours after infecting) values are calculated by the method of Reed and Muench [Amer. J. Hyg., 27, (1938)].

[3] = tested on: Escherichia coli (E-3); assay: In vivo antibacterial synergism (mouse), Escherichia coli (E-3); set-up: species or system Mice (male, CD-1 strain); conditions: p.o., at time of infection, Cpd. dose in combination with SM, 20160 min
Procedure: as §3

[4] = tested on: Escherichia coli (E-2); assay: In vivo antibacterial synergism (mouse), Escherichia coli (E-2); set-up: species or system Mice (male, CD-1 strain); conditions: p.o., at time of infection, Cpd. dose in combination with SM, 20160 min
Procedure: as §3

[5] = tested on: E. coli 9637; assay: In vitro antibacterial activity (MIC), E. coli 9637; format: cell-based; conditions: agar dilution, 18 hours at 35° C.
Procedure: as §1, §2

[6] = tested on: S. paratyphi 11737; assay: In vitro antibacterial activity (MIC), S. paratyphi 11737; format: cell-based; conditions: agar dilution, 18 hours at 35° C.
Procedure: as §1, §2

[7] = tested on: N. catarrhalis 8193; assay: In vitro antibacterial activity (MIC), N. catarrhalis 8193; format: cell-based; conditions: agar dilution, 18 hours at 35° C.
Procedure: as §1, §2

[8] = tested on: K. pneumoniae 10031; assay: In vitro antibacterial activity (MIC), K. pneumoniae 10031; format: cell-based; conditions: agar dilution, 18 hours at 35° C.
Procedure: as §1, §2

[9] = tested on: P. vulgaris 6896; assay: In vitro antibacterial activity (MIC), P. vulgaris 6896; format: cell-based; conditions: agar dilution, 18 hours at 35° C.
Procedure: as §1, §2

[10] = tested on: S. aureus 53-180; assay: In vitro antibacterial activity (MIC), S. aureus 53-180; format: cell-based; conditions: agar dilution, 18 hours at 35° C.
Procedure: as §1, §2

Structure (SMILES): COC(=O)c1ccc(Cn2ccc3c4c(N)nc(N)nc4ccc32)cc1 [Example 8]
- MIC ([1]; Staphylococcus aureus, read-out: MIC (minimal inhibitory concentration)): 31.5 µg/mL (≈ 90.7 µM)

Structure (SMILES): Nc1nc(N)c2c(ccc3c2ccn3-c2ccncc2)n1 [Example 10, 7-(4-Pyridinyl)-7H-pyrrolo-[3,2-f]quinazoline-1,3-diamine]
- PD50, SM/Cpd. (Cpd. component) [2]: 7.28 mg. per kg.
- PD50, SM/Cpd. (Cpd. component) [3]: 6.25 mg. per kg.
- PD50, SM/Cpd. (Cpd. component) [4]: 1.20 mg. per kg.

Structure (SMILES): CC(C)c1cccc(Cn2ccc3c4c(N)nc(N)nc4ccc32)c1 [Example 5]
- MIC (minimal inhibitory concentration) [5]: 7.81 µg/mL (≈ 23.6 µM)
- MIC (minimal inhibitory concentration) [1]: 1.95 µg/mL (≈ 5.88 µM)
- MIC (minimal inhibitory concentration) [6]: 31.3 µg/mL (≈ 94.4 µM)
- MIC (minimal inhibitory concentration) [7]: 3.9 µg/mL (≈ 11.8 µM)
- MIC (minimal inhibitory concentration) [8]: 0.244 µg/mL (≈ 0.736 µM)
- MIC (minimal inhibitory concentration) [9]: 62.5 µg/mL (≈ 189 µM)
- MIC (minimal inhibitory concentration) [10]: 0.488 µg/mL (≈ 1.47 µM)
